The values that follow come from patent US20120252855A1, “Methods For Treating Degenerative Diseases/Injuries” (priority 2003, published 2012).

The test system of experiment [1] is Human marrow progenitor CD34+ cells. In words: CD34+ Progenitor Cell Proliferation Assay Experiment 2. In kind it is cell-based. Here is the method:
Human marrow progenitor CD34+ cells were washed in SFEM, counted and brought to 2×10^5/mL in 24-well plates and incubated for 7 days in the presence of compound or rhTpo. Dilutions of 3′-{N′-[1-(3,4-Dimethylphenyl)-3-methyl-5-oxo-1,5-dihydropyrazol-4-ylidene]hydrazino}-2′-hydroxybiphenyl-3-carboxylic acid bis-(monoethanolamine) were made in distilled water to equal 0, 0.3, 1 and 3 uM final concentration. Dilutions of 3-{N′-[1-(3,4-dimethylphenyl)-3-methyl-5-oxo-1,5-dihydropyrazol-4-ylidene]hydrazino}-2-hydroxy-3′-tetrazol-5-ylbiphenyl disodium salt were made in DMSO to equal 0, 0.3, 1 and 3 uM final concentration in 0.1% DMSO. Recombinant human TPO at a final concentration of 100 ng/mL was used as a positive control. At day 7, cells were counted and flow cytometry was performed using FITC-CD34.

The test system of experiment [2] is early CD34+ progenitor cells from human bone marrow. Nature of the experiment: CD34+ Progenitor Cell Proliferation Assay. In kind it is cell-based. The protocol: Compounds are tested for their ability in stimulating the survival and proliferation of early CD34+ progenitor cells from human bone marrow. In this assay, purified human CD34+ progenitor cells are incubated in liquid culture with test compounds for up to 7 days and the number of cells expressing the early stem cell marker CD34 are then measured by flow cytometry and compared to untreated cells (see Liu et al. Bone Marrow Transplantation. 24:247-52, 1999).

Consider `CC1=NN(c2ccc(C)c(C)c2)C(=O)C1=NNc1cccc(-c2cccc(-c3nnn[nH]3)c2)c1O.[Na].[Na]` [3-{N′-[1-(3,4-dimethylphenyl)-3-methyl-5-oxo-1,5-dihydropyrazol-4-ylidene]hydrazino}-2-hydroxy-3′-tetrazol-5-ylbiphenyl disodium salt], for which the “increase in the number of CD34+ cells” value in experiment [1] (compound at 3 uM in 0.1% DMSO, 7 days, FITC-CD34 flow cytometry) is 3.6 fold.

`CC1=NN(c2ccc(C)c(C)c2)C(=O)C1=NNc1cccc(-c2cccc(C(=O)O)c2)c1O.NCCO.NCCO` [3′-{N′-[1-(3,4-Dimethylphenyl)-3-methyl-5-oxo-1,5-dihydropyrazol-4-ylidene]hydrazino}-2′-hydroxybiphenyl-3-carboxylic acid bis-(monoethanolamine)]: the “increase in the number of CD34+ cells” value in experiment [1] (compound at 3 uM, dilutions in distilled water, 7 days, FITC-CD34 flow cytometry) turned out to be 3 fold.

Regarding `CC1=NN(c2ccc(C(F)(F)F)cc2)C(=O)C1=NNc1cccc(-c2cccc(C(=O)O)c2)c1O` [3′-{N′-[3-methyl-5-oxo-1-(4-trifluoromethylphenyl)-1,5-dihydropyrazol-4-ylidene]hydrazino}-2′-hydroxybiphenyl-3-carboxylic acid], the “increase in the number of CD34+ cells in liquid culture over vehicle controls” value in experiment [2] (compound at 3 uM, days 2, 5 and 7, flow cytometry) is “up to 2 fold”.

In the case of “rhTpo: Recombinant human TPO, used as a positive control at 100 ng/mL”, the “increase in the number of CD34+ cells” value in experiment [2] (rhTpo 100 ng/ml, same experiment as E1) was 2 fold; in experiment [1] (rhTpo 100 ng/ml positive control, experiment with the bis-(monoethanolamine) salt, day 7) it was 15 fold; in experiment [1] (rhTpo 100 ng/ml positive control, experiment with the tetrazole disodium salt, day 7), 3.4 fold.
